Measurements as given in BindingDB's records for doi:10.1038/nchembio.1603 (Glaxosmithkline, 2014).

Target: Fatty acid synthase (Homo sapiens, UniProt P49327)
Assay: FAS Assay No1
Experimental: Inhibition of FAS by benzimidazole was measured by an endpoint assay for NADPH consumption.

Sequence of Fatty acid synthase (P49327 whole entry): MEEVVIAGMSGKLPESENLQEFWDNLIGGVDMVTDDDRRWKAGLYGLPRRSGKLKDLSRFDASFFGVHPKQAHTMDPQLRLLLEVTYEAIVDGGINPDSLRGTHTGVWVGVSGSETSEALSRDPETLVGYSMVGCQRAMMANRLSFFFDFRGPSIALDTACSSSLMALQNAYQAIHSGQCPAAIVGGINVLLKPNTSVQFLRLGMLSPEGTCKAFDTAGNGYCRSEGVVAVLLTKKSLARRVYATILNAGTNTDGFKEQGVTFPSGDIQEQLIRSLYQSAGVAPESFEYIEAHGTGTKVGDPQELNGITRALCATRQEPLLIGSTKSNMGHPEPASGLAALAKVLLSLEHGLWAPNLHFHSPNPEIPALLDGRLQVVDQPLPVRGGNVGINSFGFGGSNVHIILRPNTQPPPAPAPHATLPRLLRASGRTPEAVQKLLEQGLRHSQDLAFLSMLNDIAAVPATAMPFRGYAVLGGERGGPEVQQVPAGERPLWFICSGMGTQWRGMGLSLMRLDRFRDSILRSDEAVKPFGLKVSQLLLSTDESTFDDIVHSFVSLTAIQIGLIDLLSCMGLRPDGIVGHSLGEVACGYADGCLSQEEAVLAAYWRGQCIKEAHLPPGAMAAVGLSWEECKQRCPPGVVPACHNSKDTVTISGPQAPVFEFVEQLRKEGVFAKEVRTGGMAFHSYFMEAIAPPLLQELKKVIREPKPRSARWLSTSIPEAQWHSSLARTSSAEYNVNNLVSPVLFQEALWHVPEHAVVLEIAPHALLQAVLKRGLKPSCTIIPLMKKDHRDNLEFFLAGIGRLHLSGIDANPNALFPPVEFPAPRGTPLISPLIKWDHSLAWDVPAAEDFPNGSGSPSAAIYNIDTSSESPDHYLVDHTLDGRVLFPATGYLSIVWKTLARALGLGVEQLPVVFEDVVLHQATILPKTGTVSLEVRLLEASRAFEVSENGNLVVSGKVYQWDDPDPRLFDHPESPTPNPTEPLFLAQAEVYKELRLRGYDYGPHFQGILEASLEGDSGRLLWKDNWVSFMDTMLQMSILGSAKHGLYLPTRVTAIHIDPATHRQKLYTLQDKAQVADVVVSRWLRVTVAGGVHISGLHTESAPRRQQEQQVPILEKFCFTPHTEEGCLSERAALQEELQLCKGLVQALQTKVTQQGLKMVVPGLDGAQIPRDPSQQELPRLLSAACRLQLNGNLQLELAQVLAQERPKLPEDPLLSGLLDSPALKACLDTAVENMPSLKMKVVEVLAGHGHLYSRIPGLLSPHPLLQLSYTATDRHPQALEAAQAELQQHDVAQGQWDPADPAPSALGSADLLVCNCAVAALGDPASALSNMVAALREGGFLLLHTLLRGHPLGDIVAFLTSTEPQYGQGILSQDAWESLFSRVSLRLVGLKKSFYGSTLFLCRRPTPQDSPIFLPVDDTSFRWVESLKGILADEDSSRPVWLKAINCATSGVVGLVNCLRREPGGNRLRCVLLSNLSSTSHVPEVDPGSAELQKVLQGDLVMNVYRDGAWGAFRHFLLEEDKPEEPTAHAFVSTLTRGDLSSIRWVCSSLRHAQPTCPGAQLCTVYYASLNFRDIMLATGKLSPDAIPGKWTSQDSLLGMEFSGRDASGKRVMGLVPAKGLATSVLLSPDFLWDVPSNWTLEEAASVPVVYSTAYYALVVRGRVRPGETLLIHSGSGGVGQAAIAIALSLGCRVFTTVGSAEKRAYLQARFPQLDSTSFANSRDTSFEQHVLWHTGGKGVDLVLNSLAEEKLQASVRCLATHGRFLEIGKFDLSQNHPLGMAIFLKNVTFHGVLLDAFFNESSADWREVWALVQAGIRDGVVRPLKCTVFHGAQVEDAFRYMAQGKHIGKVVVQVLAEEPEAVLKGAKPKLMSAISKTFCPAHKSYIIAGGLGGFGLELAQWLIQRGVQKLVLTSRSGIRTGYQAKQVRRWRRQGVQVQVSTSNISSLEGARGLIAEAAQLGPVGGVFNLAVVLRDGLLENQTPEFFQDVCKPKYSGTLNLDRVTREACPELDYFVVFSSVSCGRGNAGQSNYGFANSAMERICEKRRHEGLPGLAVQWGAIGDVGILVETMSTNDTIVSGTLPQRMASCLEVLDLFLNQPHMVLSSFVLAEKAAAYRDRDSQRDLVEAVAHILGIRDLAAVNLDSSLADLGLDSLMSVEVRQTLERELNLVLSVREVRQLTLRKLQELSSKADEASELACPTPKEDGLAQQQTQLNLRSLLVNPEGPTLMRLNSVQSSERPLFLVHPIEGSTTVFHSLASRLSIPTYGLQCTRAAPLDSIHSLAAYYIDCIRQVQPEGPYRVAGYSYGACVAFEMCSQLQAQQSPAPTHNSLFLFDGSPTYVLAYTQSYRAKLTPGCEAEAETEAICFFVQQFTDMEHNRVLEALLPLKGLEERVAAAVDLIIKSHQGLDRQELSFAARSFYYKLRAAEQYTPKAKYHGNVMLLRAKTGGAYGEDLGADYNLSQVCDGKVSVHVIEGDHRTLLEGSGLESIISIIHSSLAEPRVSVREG

For `CNC(=O)c1ccc2nc(-c3ccc(-c4ccccc4)cc3)n(CC3CCN(C(=O)C4CC4)C3)c2c1` (stereo unspecified) [2-([1,1'-Biphenyl]-4-yl)-1-((1-(cyclopropanecarbonyl)pyrrolidin-3-yl)methyl)-N-methyl-1H-benzo[d]imidazole-6-carboxamide], the IC50 was 1 µM.
